Source: patent publication US9199943B2, “2-(poly-substituted aryl)-6-amino-5-halo-4-pyrimidinecarboxylic acids and their use as herbicides” (Dow AgroSciences, LLC., priority 2006, dated 2015)

Legend:
[1] = system: ABUTH = velvetleaf (Abutilon theophrasti); experiment: General preemergence herbicidal activity, velvetleaf; type: in vivo; conditions: Abutilon theophrasti, pre-emergence, 480 h, pre-emergent, visual score after 20-22 days; for pest or weed control at 140 g/ha: 140 g ai/ha
Source text: (§1) Seeds of the desired test plant species were planted in a soil matrix prepared by mixing a loam soil (43 percent silt, 19 percent clay, and 38 percent sand, with a pH of about 8.1 and an organic matter content of about 1.5 percent) and sand in a 70 to 30 ratio. The soil matrix was contained in plastic pots with a surface area of 113 square centimeters. When required to ensure good germination and healthy plants, a fungicide treatment and/or other chemical or physical treatment was applied. A weighed amount, determined by the highest rate to be tested, of each test compound was placed in a 25 mL glass vial and was dissolved in 6 mL of a 97:3 v/v (volume/volume) mixture of acetone and DMSO to obtain concentrated stock solutions. […] The stock solutions obtained were diluted with 18 mL of a 0.1% v/v aqueous solution of Tween® 20 surfactant to obtain spray solutions containing the highest application rate. Additional application rates were obtained by serial dilution of 12 mL of the high rate solution into a solution containing 3 mL of 97:3 v/v mixture of acetone and DMSO and 9 mL of the 0.1% v/v aqueous solution of Tween® 20 surfactant to obtain 1⁄2×, 1⁄4×, 1⁄8× and 1/16× rates of the high rate. Compound requirements are based upon a 12 mL application volume at a rate of 187 L/ha. Formulated compounds were applied to the plant material with an overhead Mandel track sprayer equipped with a […] nozzles calibrated to deliver 187 L/ha over an application area of 0.503 square meters at a spray height of 18 inches (43 cm) above the soil surface. Control plants were sprayed in the same manner with the solvent blank. The treated pots and control pots were placed in a greenhouse maintained with an approximate 15 hour photoperiod and temperatures of about 23-29° C. during the day and 22-28° C. during the night. Nutrients and water were added on a regular basis and supplemental lighting was provided with overhead metal halide 1000-Watt lamps as necessary. The water was added by top-irrigation. After 20-22 days, the condition of the test plants that germinated and grew as compared with that of the untreated plants that emerged and grew was determined visually and scored on a scale of 0 to 100 percent where 0 corresponds to no injury and 100 corresponds to complete kill or no emergence.

[2] = system: CHEAL = lambsquarter (Chenopodium album); experiment: General preemergence herbicidal activity, lambsquarter; type: in vivo; conditions: Chenopodium album, pre-emergence, 480 h, pre-emergent, visual score after 20-22 days; for pest or weed control at 140 g/ha: 140 g ai/ha
Source text: as §1

[3] = system: HELAN = sunflower (Helianthus annuus); experiment: General preemergence herbicidal activity, sunflower; type: in vivo; conditions: Helianthus annuus, pre-emergence, 480 h, pre-emergent, visual score after 20-22 days; for pest or weed control at 140 g/ha: 140 g ai/ha
Source text: as §1

Structure (SMILES) | pest or weed control at 140 g/ha [1] | pest or weed control at 140 g/ha [2] | pest or weed control at 140 g/ha [3] | melting point | pest or weed control at 280 g/ha ([1]; 280 g ai/ha) | pest or weed control at 280 g/ha ([2]; 280 g ai/ha) | pest or weed control at 280 g/ha ([3]; 280 g ai/ha)
COC(=O)c1nc(-c2c(F)cc(Cl)c(OC)c2F)nc(N)c1Cl [Compound 2, 6-amino-5-chloro-2-(4-chloro-2,6-difluoro-3-methoxy-phenyl)pyrimidine-4-carboxylic acid methyl ester] | 100% | 90% | 20% | – | – | – | –
COC(=O)c1nc(-c2ccc(Cl)c(OC)c2Cl)nc(N)c1Cl [Compound 6, 6-Amino-5-chloro-2-(2,4-dichloro-3-methoxyphenyl)pyrimidine-4-carboxylic acid methyl ester] | 60% | 100% | 90% | – | – | – | –
COC(=O)c1nc(-c2ccc(Cl)c(C(F)F)c2F)nc(N)c1Cl [Compound 7, 6-Amino-5-chloro-2-(4-chloro-3-difluoromethyl-2-fluorophenyl)pyrimidine-4-carboxylic acid methyl ester] | 75% | 70% | 90% | 155 to 157 °C | – | – | –
COC(=O)c1nc(-c2ccc(Cl)c(N(C)C)c2F)nc(N)c1Cl [Compound 8, 6-Amino-5-chloro-2-(4-chloro-3-dimethylamino-2-fluorophenyl)pyrimidine-4-carboxylic acid methyl ester] | – | – | – | 143 to 144 °C | – | – | –
COC(=O)c1nc(-c2ccc(Cl)c(OCC(F)F)c2F)nc(N)c1Cl [Compound 10, 6-Amino-5-chloro-2-[4-chloro-3-(2,2-difluoroethoxy)-2-fluorophenyl]-pyrimidine-4-carboxylic acid methyl ester] | – | – | – | 139 to 141 °C | 80% | 60% | 0%
